Reference: patent US20260263340A1, “Cosmetic Products and Cleaning Products Stabilized Against Microbial Attack” (Thor GmbH, priority 2023, published 2026)

Experiments:
yeast mixture 1 = assay: Repeated-inoculation microbiological stress test of all-purpose cleaner, yeast mixture 1; type: cell-based; design: key to Yeast growth after inoculation: 0: No growth; Minimal growth, 1 to 10 colonies visible over the entire streak; 2: Light growth, maximum 100 colonies; Moderate growth, maximum 300 to 400 colonies; Uniform growth, >400 colonies, single colonies still clearly recognizable; 5: Heavy growth, too many colonies to count, but no growth over the entire streak; 6: Full growth, barely any single colonies still apparent, growth over the entire streak; details: for Yeast growth after inoculation: All-purpose cleaner, 6 d
Text: (§1) The tested cleaning composition was an all-purpose cleaner without preservatives and having a pH of 7.7, the skin lotion was a body lotion without preservatives and having a pH of 7.1, and the shampoo was a hair shampoo without preservatives and having a pH of 6.9.
(§2) The cleaning composition was admixed with particular concentrations of guanidine carbonate and guanidine hydrochloride and homogenized. The body lotion and the hair shampoo were each admixed and homogenized with guanidine hydrochloride and with octane-1,2-diol alone or in combination.
(§3) The batches of the products thus obtained were inoculated repeatedly at particular intervals with bacteria mixtures or yeast mixtures that are used as standard for microbiological stress tests of industrial products or cosmetic products (bacteria mixture 1 and 2, yeast mixture 1 and 2).
(§4) The inoculum was added to the respective sample in each inoculation at 2% (v/w) as a fresh cell suspension in a physiological saline solution (0.9% NaCl). The cell count of the inoculum added was 10^8-10^9/ml for the bacteria mixtures, 10^7-10^8/ml for the yeast mixtures, consisting in equal parts of the individual bacteria strains or yeast strains.
The cell suspension of the yeast mixtures was produced by growing the yeast strains on Sabouraud glucose-agar at 25° C. for 48 hours and washing down the cell lawn in each case with physiological saline solution (0.9% NaCl). Further steps for establishment of a cell count of the inoculum suspension of 10^7/ml to 10^8/ml were effected analogously to the production of the bacteria suspensions.
(§5) In the examples, the samples were inoculated three times at weekly intervals with the respective cell suspensions (2% v/w) and the evolution of the bacteria or yeasts was followed by a semiquantitative evaluation method. After each inoculation, microbial infestation in the samples was evaluated in each case after incubation at 30° C. for 6 to 7 days. For this purpose, an aliquot was taken from each sample after homogenization using a sterile plastic inoculation loop (10 μl) and streaked evenly on agar plates (bacteria mixture 1 and 2 on tryptic soy agar, bacteria mixture 3 on DSMZ 31 alkaline nutrient agar, Sabouraud glucose-agar in the case of yeasts). The streaked agar plates were then incubated at 30° C. for 48 hours (bacteria mixture 1 and 2) or 5 to 7 days (bacteria mixture 3), or at 25° C. for 72 hours (yeast mixtures). After incubation, the bacteria colonies or yeast colonies that have grown on the agar plates were visually evaluated and quantified according to the following scheme:
Inoculation 2% (w/v) with yeast mixture 1, cell count 10^8/ml

bacteria mixture 1 = assay: Repeated-inoculation microbiological stress test of all-purpose cleaner, bacteria mixture 1; type: cell-based; design: key to Bacterial growth after inoculation: 0: No growth; Minimal growth, 1 to 10 colonies visible over the entire streak; 2: Light growth, maximum 100 colonies; Moderate growth, maximum 300 to 400 colonies; Uniform growth, >400 colonies, single colonies still clearly recognizable; 5: Heavy growth, too many colonies to count, but no growth over the entire streak; 6: Full growth, barely any single colonies still apparent, growth over the entire streak; details: for Bacterial growth after inoculation: All-purpose cleaner, 6 d
Text: as §1, §2, §3, §4
(§6) The cell suspension of the bacteria mixtures was produced by growing the individual bacteria at 30° C. for 24 h in liquid culture on a shaker. The medium used to grow the bacteria from bacteria mixtures 1 and 2 was Müller-Hinton liquid medium. The bacteria from bacteria mixture 3 were grown in Müller-Hinton liquid medium that had been adjusted to pH 9.5 to 9.7 with an alkaline buffer solution beforehand. After growing, the individual liquid cultures were centrifuged, and the cells were resuspended in physiological saline solution. In order to adjust the mixtures to a total cell count of 10^8 to 10^9/ml, the individual bacteria suspensions, if necessary, were diluted accordingly before being combined with saline solution. The cell count of the inoculum suspensions was determined in each case by chamber counting.
as §5
Inoculation 2% (w/v) with bacteria mixture 1, cell count 10^9/ml

bacteria mixture 3 = assay: Repeated-inoculation microbiological stress test of all-purpose cleaner, bacteria mixture 3 (alkaliphilic bacteria); type: cell-based, Nesterenkonia spec.; design: key to Bacteria growth after inoculation: 0: No growth; Minimal growth, 1 to 10 colonies visible over the entire streak; 2: Light growth, maximum 100 colonies; Moderate growth, maximum 300 to 400 colonies; Uniform growth, >400 colonies, single colonies still clearly recognizable; 5: Heavy growth, too many colonies to count, but no growth over the entire streak; 6: Full growth, barely any single colonies still apparent, growth over the entire streak; details: for Bacteria growth after inoculation: All-purpose cleaner, 7 d
Text: as §1, §2
The cleaning composition was additionally inoculated repeatedly at particular intervals with a special inoculum consisting of a mixture of alkaliphilic bacteria (bacteria mixture 3) that had been isolated from a bacterially contaminated cleaning composition having a pH of 9.8.
as §4, §6, §5
Inoculation 2% (w/v) with bacteria mixture 3, cell count 10^9/ml

[1] = +1000 ppm guanidine carbonate (656 ppm guanidine) pH 9.3, 1. inoculation
[2] = +1000 ppm guanidine carbonate (656 ppm guanidine) pH 9.3, 2. inoculation
[3] = +1000 ppm guanidine carbonate (656 ppm guanidine) pH 9.3, 3. inoculation

N=C(N)N.N=C(N)N.O=C(O)O [guanidine carbonate]
Yeast growth after inoculation (yeast mixture 1; [1]): 1 (Minimal growth, 1 to 10 colonies visible over the entire streak) | Yeast growth after inoculation (yeast mixture 1; [2]): 1 (Minimal growth, 1 to 10 colonies visible over the entire streak) | Yeast growth after inoculation (yeast mixture 1; [3]): 3 (Moderate growth, maximum 300 to 400 colonies) | Yeast growth after inoculation (yeast mixture 1; +2500 ppm guanidine carbonate (1640 ppm guanidine) pH 9.9, 1. inoculation): 0 | Yeast growth after inoculation (yeast mixture 1; +2500 ppm guanidine carbonate (1640 ppm guanidine) pH 9.9, 2. inoculation): 0 | Yeast growth after inoculation (yeast mixture 1; +2500 ppm guanidine carbonate (1640 ppm guanidine) pH 9.9, 3. inoculation): 0 | Yeast growth after inoculation (yeast mixture 1; +5000 ppm guanidine carbonate (3280 ppm guanidine) pH 10.4, 1. inoculation): 0 | Yeast growth after inoculation (yeast mixture 1; +5000 ppm guanidine carbonate (3280 ppm guanidine) pH 10.4, 2. inoculation): 0 | Yeast growth after inoculation (yeast mixture 1; +5000 ppm guanidine carbonate (3280 ppm guanidine) pH 10.4, 3. inoculation): 0 | stability of the all-purpose cleaner to microbial infestation by yeasts (yeast mixture 1; addition of 659 ppm of guanidine in the form of guanidine carbonate at pH 9.9): distinct improvement in stability | Bacterial growth after inoculation (bacteria mixture 1; +1000 ppm guanidine carbonate (656 ppm guanidine) pH 9.2, 1. inoculation): 0 | Bacterial growth after inoculation (bacteria mixture 1; +1000 ppm guanidine carbonate (656 ppm guanidine) pH 9.2, 2. inoculation): 0 | Bacterial growth after inoculation (bacteria mixture 1; +1000 ppm guanidine carbonate (656 ppm guanidine) pH 9.2, 3. inoculation): 5 | Bacterial growth after inoculation (bacteria mixture 1; +1500 ppm guanidine carbonate (984 ppm guanidine) pH 9.5, 1. inoculation): 0 | Bacterial growth after inoculation (bacteria mixture 1; +1500 ppm guanidine carbonate (984 ppm guanidine) pH 9.5, 2. inoculation): 0 | Bacterial growth after inoculation (bacteria mixture 1; +1500 ppm guanidine carbonate (984 ppm guanidine) pH 9.5, 3. inoculation): 0 | stability of the all-purpose cleaner to microbial infestation by bacteria (bacteria mixture 1; addition of 659 ppm of guanidine in the form of guanidine carbonate at pH 9.2 or pH 9.5): distinct improvement in stability | Bacteria growth after inoculation (bacteria mixture 3; +500 ppm guanidine carbonate (328 ppm guanidine) pH 9.1, 1. inoculation): 0 | Bacteria growth after inoculation (bacteria mixture 3; +500 ppm guanidine carbonate (328 ppm guanidine) pH 9.1, 2. inoculation): 2 (Light growth, maximum 100 colonies) | Bacteria growth after inoculation (bacteria mixture 3; +500 ppm guanidine carbonate (328 ppm guanidine) pH 9.1, 3. inoculation): 2 (Light growth, maximum 100 colonies) | Bacteria growth after inoculation (bacteria mixture 3; [1]): 0 | Bacteria growth after inoculation (bacteria mixture 3; [2]): 0 | Bacteria growth after inoculation (bacteria mixture 3; [3]): 1 (Minimal growth, 1 to 10 colonies visible over the entire streak) | Bacteria growth after inoculation (bacteria mixture 3; +2500 ppm guanidine carbonate (1640 ppm guanidine) pH 10.0, 1. inoculation): 0 | Bacteria growth after inoculation (bacteria mixture 3; +2500 ppm guanidine carbonate (1640 ppm guanidine) pH 10.0, 2. inoculation): 0 | Bacteria growth after inoculation (bacteria mixture 3; +2500 ppm guanidine carbonate (1640 ppm guanidine) pH 10.0, 3. inoculation): 0 | Bacteria growth after inoculation (bacteria mixture 3; +5000 ppm guanidine carbonate (3280 ppm guanidine) pH 10.5, 1. inoculation): 0 | Bacteria growth after inoculation (bacteria mixture 3; +5000 ppm guanidine carbonate (3280 ppm guanidine) pH 10.5, 2. inoculation): 0 | Bacteria growth after inoculation (bacteria mixture 3; +5000 ppm guanidine carbonate (3280 ppm guanidine) pH 10.5, 3. inoculation): 0 | stability of the all-purpose cleaner to microbial infestation by bacteria (bacteria mixture 3; addition of 330 ppm of guanidine in the form of guanidine carbonate at pH 9.1): distinct improvement in stability
